{
  "source": "patent US20250163054A1",
  "about": "“SUBSTITUTED BICYCLIC HETEROARYL COMPOUNDS USEFUL AS INHIBITORS OF TLR9” (Bristol-Myers Squibb Company, priority 2022, published 2025)",
  "assay_type_in_all_cases": "cell-based",
  "key": {"human TLR7": {"biological_target": "T1, human TLR7 (Homo sapiens, UniProt Q9NYK1)", "T1 construct": "host or cells: HEK-Blue cells (HEK293-derived reporter line)", "T1 sequence (Q9NYK1 27-1049)": "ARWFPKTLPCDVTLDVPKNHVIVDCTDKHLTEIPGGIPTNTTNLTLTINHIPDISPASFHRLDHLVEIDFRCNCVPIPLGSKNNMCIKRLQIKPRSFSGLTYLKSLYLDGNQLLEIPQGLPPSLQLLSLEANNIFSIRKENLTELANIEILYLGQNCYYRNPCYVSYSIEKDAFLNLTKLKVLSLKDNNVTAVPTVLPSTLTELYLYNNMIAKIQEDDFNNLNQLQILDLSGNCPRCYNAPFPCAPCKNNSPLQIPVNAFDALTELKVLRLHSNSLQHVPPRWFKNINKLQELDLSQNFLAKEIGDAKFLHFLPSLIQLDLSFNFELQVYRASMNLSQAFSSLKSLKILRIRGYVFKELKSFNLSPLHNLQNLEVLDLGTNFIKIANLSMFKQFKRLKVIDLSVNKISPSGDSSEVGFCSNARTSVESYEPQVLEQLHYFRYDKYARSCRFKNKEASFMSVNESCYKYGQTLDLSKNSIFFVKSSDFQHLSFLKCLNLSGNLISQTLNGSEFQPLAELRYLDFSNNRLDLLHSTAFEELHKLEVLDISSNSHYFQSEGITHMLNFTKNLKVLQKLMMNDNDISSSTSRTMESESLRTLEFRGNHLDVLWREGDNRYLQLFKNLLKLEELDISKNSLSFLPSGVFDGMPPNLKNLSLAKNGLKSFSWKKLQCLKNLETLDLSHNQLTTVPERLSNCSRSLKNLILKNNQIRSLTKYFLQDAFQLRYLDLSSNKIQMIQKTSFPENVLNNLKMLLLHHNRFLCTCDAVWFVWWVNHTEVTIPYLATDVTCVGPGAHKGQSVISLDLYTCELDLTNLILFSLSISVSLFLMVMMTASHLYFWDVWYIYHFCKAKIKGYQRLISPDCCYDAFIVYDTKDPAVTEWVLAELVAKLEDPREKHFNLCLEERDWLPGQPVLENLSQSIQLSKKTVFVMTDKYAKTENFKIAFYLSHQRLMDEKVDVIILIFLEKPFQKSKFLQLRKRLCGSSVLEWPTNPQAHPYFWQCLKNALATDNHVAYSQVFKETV", "assay": "TLR7/8/9 Inhibition Reporter Assays (TLR7)", "conditions": "HEK-Blue cells overexpressing human TLR7, SEAP reporter, stimulated with TLR7 ligand gardiquimod", "outline": "(§1)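 HEK-Blue cells overexpressing human TLR7, TLR8 or TLR9 with NF-κB/AP-1-driven SEAP reporter, pre-treated 60 min with compound ([…]). Stimulated with […] (TLR7), […] (TLR8) or ODN2006 200 nM (TLR9), then 22 h at 37° C; SEAP measured, % inhibition relative to agonist-plus-DMSO and known-inhibitor wells.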"}, "human TLR9": {"biological_target": "T2, human TLR9 (Homo sapiens, UniProt Q9NR96)", "T2 construct": "host or cells: HEK-Blue cells (HEK293-derived reporter line)", "T2 sequence (Q9NR96 26-1032)": "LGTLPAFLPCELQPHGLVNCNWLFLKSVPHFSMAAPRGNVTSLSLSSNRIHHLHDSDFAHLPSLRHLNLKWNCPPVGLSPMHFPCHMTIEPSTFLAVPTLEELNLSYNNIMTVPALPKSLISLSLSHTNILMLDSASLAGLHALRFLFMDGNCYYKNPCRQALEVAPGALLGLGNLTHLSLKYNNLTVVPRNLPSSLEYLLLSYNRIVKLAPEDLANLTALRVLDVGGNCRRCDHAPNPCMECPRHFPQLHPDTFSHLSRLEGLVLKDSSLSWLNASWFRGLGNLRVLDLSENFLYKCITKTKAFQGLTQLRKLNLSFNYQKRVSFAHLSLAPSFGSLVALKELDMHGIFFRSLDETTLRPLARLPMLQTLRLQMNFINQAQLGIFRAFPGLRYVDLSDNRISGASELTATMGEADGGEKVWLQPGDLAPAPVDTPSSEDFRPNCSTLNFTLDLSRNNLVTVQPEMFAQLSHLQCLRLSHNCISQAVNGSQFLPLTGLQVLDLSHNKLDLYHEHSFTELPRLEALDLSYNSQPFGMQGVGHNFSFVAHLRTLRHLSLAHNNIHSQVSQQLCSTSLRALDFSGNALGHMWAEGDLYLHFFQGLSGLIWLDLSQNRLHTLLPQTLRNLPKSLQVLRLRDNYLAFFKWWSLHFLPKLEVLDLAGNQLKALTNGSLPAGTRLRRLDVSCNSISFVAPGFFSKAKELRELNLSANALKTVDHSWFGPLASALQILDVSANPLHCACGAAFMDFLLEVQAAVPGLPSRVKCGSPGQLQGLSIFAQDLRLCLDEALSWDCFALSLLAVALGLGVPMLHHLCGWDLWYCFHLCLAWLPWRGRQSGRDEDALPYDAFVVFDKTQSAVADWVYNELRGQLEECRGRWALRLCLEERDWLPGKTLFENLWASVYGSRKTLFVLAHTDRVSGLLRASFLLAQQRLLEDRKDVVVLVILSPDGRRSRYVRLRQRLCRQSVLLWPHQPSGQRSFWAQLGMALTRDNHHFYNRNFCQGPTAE", "assay": "TLR7/8/9 Inhibition Reporter Assays (TLR9)", "conditions": "HEK-Blue cells overexpressing human TLR9, SEAP reporter, stimulated with TLR9 ligand ODN2006", "outline": "as §1"}, "human TLR8": {"biological_target": "T3, human TLR8 (Homo sapiens, UniProt Q9NR97)", "T3 construct": "host or cells: HEK-Blue cells (HEK293-derived reporter line)", "T3 sequence (Q9NR97 27-1041)": "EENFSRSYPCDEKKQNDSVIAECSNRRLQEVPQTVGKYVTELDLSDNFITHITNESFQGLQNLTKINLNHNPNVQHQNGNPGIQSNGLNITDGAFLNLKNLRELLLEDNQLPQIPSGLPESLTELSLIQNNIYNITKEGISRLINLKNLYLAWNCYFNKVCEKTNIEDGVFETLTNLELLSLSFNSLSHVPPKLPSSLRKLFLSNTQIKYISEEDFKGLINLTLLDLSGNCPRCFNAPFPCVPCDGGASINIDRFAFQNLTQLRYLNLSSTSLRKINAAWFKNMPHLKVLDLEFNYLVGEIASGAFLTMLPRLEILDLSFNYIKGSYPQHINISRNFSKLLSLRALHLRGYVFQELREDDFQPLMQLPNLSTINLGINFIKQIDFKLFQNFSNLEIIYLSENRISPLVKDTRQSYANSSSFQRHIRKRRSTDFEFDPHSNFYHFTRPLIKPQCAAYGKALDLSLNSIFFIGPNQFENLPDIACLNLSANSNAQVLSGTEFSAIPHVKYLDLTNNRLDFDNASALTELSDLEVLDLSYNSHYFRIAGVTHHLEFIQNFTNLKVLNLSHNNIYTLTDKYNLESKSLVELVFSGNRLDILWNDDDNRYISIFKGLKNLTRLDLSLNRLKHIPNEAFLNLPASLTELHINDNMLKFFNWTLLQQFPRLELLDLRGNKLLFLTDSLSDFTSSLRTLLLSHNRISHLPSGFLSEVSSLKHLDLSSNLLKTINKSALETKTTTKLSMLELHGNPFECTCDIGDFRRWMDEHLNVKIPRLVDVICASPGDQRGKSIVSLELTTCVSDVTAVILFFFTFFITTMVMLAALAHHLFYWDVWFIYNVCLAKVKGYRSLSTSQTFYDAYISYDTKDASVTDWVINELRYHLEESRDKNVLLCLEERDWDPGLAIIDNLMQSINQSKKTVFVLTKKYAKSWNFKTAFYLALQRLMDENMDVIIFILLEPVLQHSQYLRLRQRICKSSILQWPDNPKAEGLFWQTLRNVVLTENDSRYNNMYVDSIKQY", "assay": "TLR7/8/9 Inhibition Reporter Assays (TLR8)", "conditions": "HEK-Blue cells overexpressing human TLR8, SEAP reporter, stimulated with TLR8 ligand R848", "outline": "as §1"}},
  "data": [
    {"smiles": "COCCN1CC2(CCN(c3ccc(-c4cc5c(nc(-c6ccc(OC)c(OC)c6)n5C)c(C)n4)cc3)CC2)C1", "note": "[Example 103, 2-(3,4-dimethoxyphenyl)-6-(4-(2-(2-methoxyethyl)-2,7-diazaspiro[3.5]nonan-7-yl)phenyl)-1,4-dimethyl-1H-imidazo[4,5-c]pyridine]", "values": [
      {"measurement": "IC50", "setting": "human TLR7", "value": 1700, "unit": "nM"},
      {"measurement": "IC50", "setting": "human TLR9", "value": 140, "unit": "nM"},
      {"measurement": "IC50", "setting": "human TLR8", "value": "> 50000", "unit": "nM"}
    ]}
  ]
}
